PubChem BioAssay AID256 (DTP/NCI, 2004)
“And” between values parts separate entries of the source, which are not always exact repeats. Equal entries are not always repeated. Toxic doses and inconclusive results are not listed. The calls were made as follows: active = survival T/C of 150% or more; inactive = T/C below 125% in these data.

Tested on: CD2F1 mice, L1210 leukemia ip, survival T/C
Assay: NCI In Vivo Anticancer Drug Screen. Data for tumor model L1210 Leukemia (intraperitoneal) in CD2F1 (CDF1) mice
Details: higher = longer survival
How it was run: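 Read-out first: treated-group measurement over vehicle-control measurement, expressed as a ratio. Animals bore a transplanted tumor line and were dosed with compound or vehicle.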

[1] = endpoint: mean survival time, dose: 100.0 mg/kg/injection, schedule: Q04DX003 (ip), vehicle: saline with Tween-80
[2] = endpoint: mean survival time, dose: 200.0 mg/kg/injection, schedule: Q04DX003 (ip), vehicle: saline with Tween-80
[3] = endpoint: mean survival time, dose: 400.0 mg/kg/injection, schedule: Q04DX003 (ip), vehicle: saline with Tween-80
[4] = endpoint: mean survival time, dose: 50.0 mg/kg/injection, schedule: Q01DX009 (ip), vehicle: saline with Tween-80
[5] = endpoint: mean survival time, dose: 100.0 mg/kg/injection, schedule: Q01DX009 (ip), vehicle: saline with Tween-80
[6] = endpoint: mean survival time, dose: 200.0 mg/kg/injection, schedule: Q01DX009 (ip), vehicle: saline with Tween-80
[7] = endpoint: mean survival time, dose: 400.0 mg/kg/injection, schedule: Q01DX009 (ip), vehicle: saline with Tween-80
[8] = endpoint: mean survival time, dose: 100.0 mg/kg/injection, schedule: Q04DX002 (ip), vehicle: saline with Tween-80
[9] = endpoint: mean survival time, dose: 200.0 mg/kg/injection, schedule: Q04DX002 (ip), vehicle: saline with Tween-80
[10] = endpoint: mean survival time, dose: 400.0 mg/kg/injection, schedule: Q04DX002 (ip), vehicle: saline with Tween-80
[11] = endpoint: mean survival time, dose: 12.5 mg/kg/injection, schedule: Q01DX009 (ip), vehicle: saline with Tween-80
[12] = endpoint: mean survival time, dose: 25.0 mg/kg/injection, schedule: Q01DX009 (ip), vehicle: saline with Tween-80
[13] = endpoint: mean survival time, dose: 50.0 mg/kg/injection, schedule: Q01DX009 (ip), vehicle: Klucel (hydroxypropylcellulose) (HPC)
[14] = endpoint: mean survival time, dose: 100.0 mg/kg/injection, schedule: Q01DX009 (ip), vehicle: Klucel (hydroxypropylcellulose) (HPC)
[15] = endpoint: mean survival time, dose: 200.0 mg/kg/injection, schedule: Q01DX009 (ip), vehicle: Klucel (hydroxypropylcellulose) (HPC)

Measured: T/C

CC(SC(=S)N(C)C)C(=O)O (stereo not given)
inactive: [1] 96 % of control | [2] 101 % of control | [3] 101 % of control

NC(CCC(=O)NCc1ccc(S(=O)(=O)F)cc1)C(=O)O (stereo not given)
inactive: endpoint: mean survival time, dose: 50.0 mg/kg/injection, schedule: Q01DX009 (ip), vehicle: saline 92 % of control | endpoint: mean survival time, dose: 100.0 mg/kg/injection, schedule: Q01DX009 (ip), vehicle: saline 96 % of control | endpoint: mean survival time, dose: 200.0 mg/kg/injection, schedule: Q01DX009 (ip), vehicle: saline 92 % of control

O=C(/C=C/c1ccccc1)N1CC2CCC(CC2)C1
inactive: [4] 94 % of control | [5] 94 % of control | [6] 91 % of control

COc1cc2cc3cc4cc(OC)c(OC)cc4c(C)[n+]3cc2cc1OC (tested in a mixture with another compound)
inactive: endpoint: mean survival time, dose: 12.5 mg/kg/injection, schedule: Q01DX009 (ip), vehicle: suspension in saline 109 % of control | endpoint: mean survival time, dose: 25.0 mg/kg/injection, schedule: Q01DX009 (ip), vehicle: suspension in saline 110 % of control | endpoint: mean survival time, dose: 50.0 mg/kg/injection, schedule: Q01DX009 (ip), vehicle: suspension in saline 114 % of control | endpoint: mean survival time, dose: 100.0 mg/kg/injection, schedule: Q01DX009 (ip), vehicle: suspension in saline 107 % of control | endpoint: mean survival time, dose: 200.0 mg/kg/injection, schedule: Q01DX009 (ip), vehicle: suspension in saline 110 % of control

c1ccc(-c2nc3ccc4ccccc4c3nc2-c2ccccc2)cc1
inactive: [5] 94 % of control | [1] 98 % of control | [6] 96 % of control | [2] 92 % of control | [7] 96 % of control | [3] 92 % of control

COc1ccc(C(=O)CN(C)S(=O)(=O)c2ccc(C)cc2)cc1
inactive: [8] 97 % of control | [9] 97 % of control | [10] 94 % of control

C1CC[N-]CC1.C1CC[N-]CC1.[Cl][Rh]([Cl])[Cl]
inactive: [11] 90 % of control | [12] 98 % of control | [4] 100 % of control | [5] 94 % of control | [6] 96 % of control

CC(=O)c1cc2c(cc1C(C)C)CC[C@H]1[C@](C)(C#N)CCC[C@]21C
inactive: [12] 104 % of control | [4] 90 % of control | [5] 98 % of control | [1] 87 % of control

CC(=N\N)/C(C)=N/N
inactive: [1] 105 % of control

CCCCN(CCCC)CC(O)c1ccccc1 (stereo not given)
inactive: [8] 88 % of control

Cc1ccc(S(=O)(=O)CCCCl)cc1
inactive: [13] 111 % of control | [14] 95 % of control | [15] 100 % of control

CCCCCCCCCCCCNCCC(=O)O
inactive: endpoint: mean survival time, dose: 75.0 mg/kg/injection, schedule: Q01DX001 (ip), vehicle: saline 93 % of control | endpoint: mean survival time, dose: 150.0 mg/kg/injection, schedule: Q01DX001 (ip), vehicle: saline 93 % of control

O=c1[nH]c(N[N+](=O)[O-])nc(-c2ccccc2)c1Br
inactive: [8] 103 % of control | [9] 100 % of control | [10] 92 % of control

CSCCC(NC(=O)CN)C(=O)O (stereo not given)
inactive: [4] 96 % of control | [5] 92 % of control | [6] 100 % of control

COc1ccc(C#N)c([N+](=O)[O-])c1
inactive: [1] 95 % of control | [2] 114 % of control

O=C(CCCCC(=O)N/N=C/c1cccc([N+](=O)[O-])c1)N/N=C/c1cccc([N+](=O)[O-])c1
inactive: [5] 87 % of control | [6] 87 % of control | [7] 90 % of control

OCC1(OC2OC(CBr)C(O)C(O)C2O)OC(CBr)C(O)C1O (stereo not given)
inactive: [4] 98 % of control | [5] 91 % of control | [6] 95 % of control

O=C(/C=C/c1ccccc1)Nc1ccccc1Cl
inactive: [8] 105 % of control | [9] 98 % of control | [10] 98 % of control

CC(=O)OC1CC(C)CCC1C(C)C (stereo not given)
inactive: [1] 113 % of control | [2] 106 % of control

COC1/C=C/C=C(/C)Cc2cc(O)c(Cl)c(c2)N(C)C(=O)CC(OC(=O)C(C)C)C2(C)OC2C(C)C2CC1(O)NC(=O)O2 (stereo not given)
inactive: endpoint: mean survival time, dose: 0.12 mg/kg/injection, schedule: Q01DX009 (ip), vehicle: saline + alcohol 111 % of control | endpoint: mean survival time, dose: 0.5 mg/kg/injection, schedule: Q01DX009 (ip), vehicle: saline + alcohol 111 % of control | endpoint: mean survival time, dose: 1.0 mg/kg/injection, schedule: Q01DX009 (ip), vehicle: saline + alcohol 122 % of control | endpoint: mean survival time, dose: 2.0 mg/kg/injection, schedule: Q01DX009 (ip), vehicle: saline + alcohol 90 % of control | endpoint: median survival time, dose: 0.06 mg/kg/injection, schedule: Q01DX009 (ip), vehicle: saline + alcohol 117 % of control | endpoint: median survival time, dose: 0.12 mg/kg/injection, schedule: Q01DX009 (ip), vehicle: saline + alcohol 117 % of control | endpoint: median survival time, dose: 0.5 mg/kg/injection, schedule: Q01DX009 (ip), vehicle: saline + alcohol 122 % of control | endpoint: median survival time, dose: 1.0 mg/kg/injection, schedule: Q01DX009 (ip), vehicle: saline + alcohol 120 % of control | endpoint: median survival time, dose: 2.0 mg/kg/injection, schedule: Q01DX009 (ip), vehicle: saline + alcohol 123 % of control

N#CCS(=O)(=O)c1ccccc1
inactive: endpoint: mean survival time, dose: 12.5 mg/kg/injection, schedule: Q01DX001 (ip), vehicle: saline with Tween-80 95 % of control | endpoint: mean survival time, dose: 25.0 mg/kg/injection, schedule: Q01DX001 (ip), vehicle: saline with Tween-80 98 % of control | endpoint: mean survival time, dose: 50.0 mg/kg/injection, schedule: Q01DX001 (ip), vehicle: saline with Tween-80 96 % of control and 98 % of control

O=[N+]([O-])c1cccc(/C=C/c2ccccn2)c1
inactive: [13] 98 % of control | [14] 98 % of control | [15] 90 % of control

O=P(O)(O)OCC(O)CF (stereo not given)
inactive: endpoint: mean survival time, dose: 87.5 mg/kg/injection, schedule: Q04DX003 (ip), vehicle: saline 118 % of control

O=C(C=[As](c1ccccc1)(c1ccccc1)c1ccccc1)c1ccccc1
inactive: endpoint: mean survival time, dose: 75.0 mg/kg/injection, schedule: Q01DX001 (ip), vehicle: other 91 % of control | endpoint: mean survival time, dose: 150.0 mg/kg/injection, schedule: Q01DX001 (ip), vehicle: other 100 % of control | endpoint: mean survival time, dose: 300.0 mg/kg/injection, schedule: Q01DX001 (ip), vehicle: other 91 % of control

CC(=O)N(C)c1ccc(NC(=O)Nc2ccc(C)c([N+](=O)[O-])c2)cc1
inactive: [4] 102 % of control | [5] 94 % of control | [6] 90 % of control

C[N+](C)(C)CC1CS1 (stereo not given)
inactive: endpoint: mean survival time, dose: 4.5 mg/kg/injection, schedule: Q01DX009 (ip), vehicle: saline sonified 96 % of control | endpoint: mean survival time, dose: 4.5 mg/kg/injection, schedule: Q04DX003 (ip), vehicle: saline 98 % of control | endpoint: mean survival time, dose: 9.0 mg/kg/injection, schedule: Q01DX009 (ip), vehicle: saline sonified 94 % of control | endpoint: mean survival time, dose: 9.0 mg/kg/injection, schedule: Q04DX003 (ip), vehicle: saline 98 % of control | endpoint: mean survival time, dose: 18.0 mg/kg/injection, schedule: Q01DX009 (ip), vehicle: saline sonified 92 % of control | endpoint: mean survival time, dose: 18.0 mg/kg/injection, schedule: Q04DX003 (ip), vehicle: saline 95 % of control

CN(C)C=Nc1cccc2[nH]c3ccccc3c12
inactive: [11] 92 % of control | [12] 104 % of control | [4] 97 % of control | endpoint: mean survival time, dose: 100.0 mg/kg/injection, schedule: Q01DX001 (ip), vehicle: saline with Tween-80 92 % of control | [5] 103 % of control | endpoint: mean survival time, dose: 200.0 mg/kg/injection, schedule: Q01DX001 (ip), vehicle: saline with Tween-80 101 % of control

Cc1cc(F)ccc1NC(=O)OC(C)C
inactive: [1] 101 % of control | [2] 92 % of control | [3] 104 % of control
